This note sets out measurements from ChEMBL document CHEMBL1201862, “PubChem BioAssay data set” (2004).

What all share (assay): inhibition of tumour cell growth, NCI panel, 48 h
Assay [1] deals with HCT-15.
In assay [2] the test system is HT-29.
Assay [3] deals with DMS-114.
For assay [4], the system named is SW-620.
Assay [5] relates to IGROV-1.
Assay [6] relates to EKVX.
For assay [7], the system named is SF-539.
For assay [8], the system named is DLD-1.
The test system of assay [9] is HOP-92.
For assay [10], the system named is SNB-75.
Assay [11] deals with 786-0.
Assay [12] relates to SK-OV-3.
The subject of assay [13] is KM12.
Assay [14] concerns UO-31.
Assay [15] deals with KM-20L2.
Assay [16] deals with NCI-H522.

Each structure is given as a SMILES string.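 1) Cells in 96-well plates. 2) Compound, 48 h, 5 concentrations. 3) Linear interpolation between surrounding doses. 4) Unreached endpoint = highest concentration. Abbreviation: GI50, concentration required for 50% inhibition of growth.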 The source made the active and inactive calls. Rule as the data show it: active = GI50 up to about 1.1 µM and inactive = higher. Bounds are passed on as bounds.

Turning to `O=C1c2ccccc2C(=O)c2c(O)c(NCCCNCCO)cc(O)c21`, the GI50 in assay [1] was 5.83 µM; in [2], 4.16 µM (inactive); in assay [3] it was 11 µM (inactive); in assay [4], 4.33 µM (inactive); in assay [5] it was 12.4 µM (inactive); in [6], 13.7 µM (inactive). Moreover, the GI50 is 9.38 µM (inactive) in [7]; 6.49 µM (inactive) in assay [8]; 12.4 µM (inactive) in [9]; 12.9 µM (inactive) in assay [10]; 10.5 µM (inactive) in assay [11]; 12.4 µM (inactive) in assay [12]. The GI50 in assay [13] is 0.729 µM (active); in assay [14], 5.87 µM (inactive).

For `COc1ccc(C(=O)Nc2ccccc2)cc1[N+](=O)[O-]`, the GI50 in assay [15] was > 100 µM (inactive); in assay [1], more than 100 µM; in assay [2], 70.3 µM (inactive); in assay [3] it was 52.4 µM (inactive); in [4] it was > 100 µM (inactive); in [5], > 100 µM (inactive). The GI50 is 46.6 µM (inactive) in [6]; > 100 µM (inactive) in [7]; > 100 µM (inactive) in [8]; 59.7 µM (inactive) in [10]; > 100 µM (inactive) in [11]; > 100 µM (inactive) in [12]. The values for the GI50 in assay [16], in assay [13] and in assay [14] were 87.9 µM (inactive), 89.7 µM (inactive) and 81.5 µM (inactive), respectively.

`Cc1cc(O)cc2c1O[C@@]1(C)CCC3[C@@]4(C)CC[C@H](O)C(C)(C)C4CC[C@@]3(C)[C@H]1C2` (stereo partly drawn): the GI50 in [1] was 3.03 µM; in assay [2], 13.3 µM (inactive); in assay [3], 5.09 µM (inactive); in [4] it was 6.14 µM (inactive); in assay [5], 13.5 µM (inactive); in [6] it was 12.6 µM (inactive). Further, the GI50 is 2.23 µM (inactive) in [7]; 4.06 µM (inactive) in [8]; 5.09 µM (inactive) in assay [9]; 3.03 µM (inactive) in assay [10]; 2.32 µM (inactive) in assay [11]; 3.4 µM (inactive) in [12]. Further, the GI50 was 6.52 µM (inactive) in [16], 4.31 µM (inactive) in [13] and 8.45 µM (inactive) in [14].

`CC(=O)Nc1ccc(-c2nnc(SCC(=O)Nc3cccc(Cl)c3)o2)cc1`: the GI50 in assay [15] is 15.3 µM (inactive); in assay [1] it was 14.9 µM; in assay [2], 17.2 µM (inactive); in assay [3], 1.36 µM (inactive); in assay [4], 13.5 µM (inactive); in assay [5], 8.97 µM (inactive). Moreover, the GI50 was 25.3 µM (inactive) in assay [6]; 20.1 µM (inactive) in assay [7]; 14.3 µM (inactive) in assay [8]; 20 µM (inactive) in assay [10]; 6.49 µM (inactive) in [11]; 38 µM (inactive) in assay [12]. Besides, the GI50 in assay [16] was 5.86 µM (inactive); in [13], 16 µM (inactive); in assay [14], 27.7 µM (inactive).

As for `CN(C)C(=S)/N=c1\ss/c(=N\C(=S)N(C)C)n1Cc1ccco1`, the GI50 in [15] was > 100 µM (inactive); in assay [1], more than 100 µM; in assay [3] it was > 100 µM (inactive); in [4], > 100 µM (inactive); in assay [5], > 100 µM (inactive); in assay [7] it was > 100 µM (inactive). Further, the GI50 in [8], in assay [10], in assay [11], in [12], in assay [16] and in assay [13] was > 100 µM (inactive) each time. In [14], the GI50 is > 100 µM (inactive).

Take `CCCCCC(=O)C(C)C1=Nc2nnc(CCCCCCCc3nnc4n3C(=O)C(C(C)C(=O)CCCCC)=N4)n2C1=O` (stereo not drawn): the GI50 was > 100 µM (inactive) in assay [15]; more than 100 µM in assay [1]; > 100 µM (inactive) in [2]; > 100 µM (inactive) in assay [3]; > 100 µM (inactive) in assay [4]; > 100 µM (inactive) in [5]. The GI50 in assay [6], in [7], in assay [8], in assay [10], in assay [11] and in assay [12] was > 100 µM (inactive) each time. Moreover, the GI50 in assay [16], in assay [13] and in [14] was > 100 µM (inactive) each time.

Turning to `O=C1NC2C3CC(OCc4ccccc4)(OCc4ccccc4)C2OC3O1` (stereo not drawn), the GI50 is more than 50 µM in assay [1]; > 50 µM (inactive) in assay [2]; > 50 µM (inactive) in [3]; > 50 µM (inactive) in [4]; > 50 µM (inactive) in [5]; > 50 µM (inactive) in [7]. Moreover, the GI50 is > 50 µM (inactive) in assay [8]; > 50 µM (inactive) in assay [9]; 48.6 µM (inactive) in assay [10]; > 50 µM (inactive) in assay [11]; > 50 µM (inactive) in [12]; > 50 µM (inactive) in assay [13]. Also, the GI50 in assay [14] is > 50 µM (inactive).

`Cc1c2c(cc[n+]1C)O[B-](c1ccccc1)(c1ccccc1)O2`: the GI50 was 71 µM (inactive) in [15]; 38.3 µM in assay [1]; > 100 µM (inactive) in assay [2]; 61.1 µM (inactive) in [3]; 26.8 µM (inactive) in assay [4]; 90.6 µM (inactive) in assay [5]. Besides, the GI50 in assay [6] is 26.5 µM (inactive); in assay [7] it was 95.9 µM (inactive); in assay [8], 60 µM (inactive); in assay [10], 22.3 µM (inactive); in [11] it was 71.9 µM (inactive); in [12], 94 µM (inactive). The GI50 in assay [16] was 36.8 µM (inactive); in [13], 59.8 µM (inactive); in [14] it was 33.7 µM (inactive).

In the case of `CCc1cccc(NC(=O)c2cc(/C=C/c3ccccc3)nc(S)n2)c1`, the GI50 in [15] was > 100 µM (inactive); in assay [1], more than 100 µM; in assay [2], > 100 µM (inactive); in [3] it was > 100 µM (inactive); in assay [4], > 100 µM (inactive); in [5] it was > 100 µM (inactive). In addition, the GI50 in [6], in assay [7], in assay [9], in assay [10], in assay [11] and in [12] was > 100 µM (inactive) each time. The GI50 in assay [16], in assay [13] and in [14] was > 100 µM (inactive) throughout.

On to `Cc1ccc(S(=O)(=O)N/N=C2\CCCCC23CCC(=O)NC3)cc1` (stereo not drawn), for which the GI50 is > 100 µM (inactive) in [15]; more than 100 µM in [1]; > 100 µM (inactive) in [3]; > 100 µM (inactive) in assay [4]; > 100 µM (inactive) in assay [5]; > 100 µM (inactive) in assay [7]. Besides, the GI50 in assay [8], in [10], in [11], in assay [12], in assay [16] and in assay [13] was > 100 µM (inactive) each time. In addition, in [14], the GI50 was > 100 µM (inactive).
